Molecules are shown by their SMILES. Like-named read-outs stand apart in the source and are kept apart here. Where a SMILES comes first, the peptide text is derived from it. [ ]: non-standard residue; d: D form. The star is where a group is joined. Dolaproine = CO[C@@H]([C@@H]1CCCN1)[C@@H](C)C(=O)O; Dil = CC[C@H](C)[C@H](NC)[C@@H](CC(=O)O)OC; X1 = C[C@@H](N*)[C@@H](O)c1ccccc1; NMeV = CN[C@H](C(=O)O)C(C)C

The nature of data set [1]: Murine serum stability assay. It counts as in vitro ADME, mouse. The settings on record: read-out: Murine serum stability assay, T1/2. On the procedure: Serum was drawn from male CD-1 mice by Pharmidex. Lyophilized peptides were solubilized in DMSO and then further diluted into male mouse (CD-1) serum at 37° C. in duplicates. The reaction was incubated at 37° C. and samples extracted at 6 time points: 0, 0.16, 0.5, 1, 3, and 6 hrs. Acetonitrile (ACN) with an internal standard (tolbutamide) was added to stop the incubation. Samples were centrifuged, and the supernatant was analyzed by HPLC-MS/MS for the parent compound.

Another data set deals with MDA-MB-231 xenograft. The experiment in a line: MDA-MB-231 murine xenograft efficacy model. Format: in vivo, mouse. The method, then:
Murine xenograft experiments were conducted at WuXi AppTec and/or Charles River Laboratories and the care and use of animals was conducted in accordance with the regulations of the Association for Assessment and Accreditation of Laboratory Animal Care (AAALAC). MDA-MB-231 tumor cells (ATCC, Manassas, VA, cat #HTB-26) were grown and maintained in L15 medium supplemented with 10% heat inactivated fetal bovine serum, 1% Antibiotic-Antimycotic, and L-glutamine (2 mM) at 37° C. in an atmosphere in 5% CO2, 95% air. BALB/c Nude, female, 6-8 weeks, weighing approximately 18-22 g were purchased from Vital River Laboratory Animal Technology Co., LTD. Mice were inoculated subcutaneously at the right flank with MDA-MB-231 tumor cells (e.g., triple negative breast cancer cells) (10×10^6) in 0.2 mL of PBS with Matrigel (1:1) for tumor development. Animals were randomized and treatment was started when the average tumor volume reached approximately 150-200 mm^3 for the efficacy study. Dosing volume was adjusted based on body weight and was administered at 10 mL/Kg. […] Free MMAE payload was also tested, and similarly dissolved in 25 mM Histidine 10% sucrose pH 7 and one or more of the following doses, 0.6, 0.06 mg/kg, were administered to the mice i.v. at a QW×4 schedule. Tumor sizes were measured twice weekly in two dimensions using a caliper, and the volume in mm^3 calculated using the formula: V=0.5 a×b^2, where a and b are the long and short diameters of the tumor, respectively. TGI was calculated for each group using the formula: TGI (%)=[1−(Ti−T0)/(Vi−V0)]×100; where Ti is the average tumor volume of a treatment group on a given day, TO is the average tumor volume of the treatment group on the first day of treatment, Vi is the average tumor volume of the vehicle control group on the same day with Ti, and V0 is the average tumor volume of the vehicle group on the first day of treatment.
To characterize the effects of the MMAE payload alone, we included free MMAE at molar equivalency to PDCs, and tested at 0.6 and 0.06 mg/kg, as separate arms.
To characterize the effects of the MMAE payload alone, we included free MMAE at molar equivalency to PDCs, and tested at 0.6 mg/kg.

[2] abbreviates: male, CD-1, mouse, mouse serum, linear peptides, Table 11.
Setting [3] is: mouse, serum, linear peptides, Table 11.
Setting [4] is: male, CD-1, mouse, mouse serum, cyclic peptides, Table 12.
Where [5] appears, read: mouse, serum, cyclic peptides, Table 12.

`CC(C)CC[C@H](NC(=O)[C@H](CCC(N)=O)NC(=O)[C@H](CCCNC(=N)N)NC(=O)[C@H](CC(C)C)NC(=O)[C@H](C)NC(=O)[C@@H]1CCCN1C(=O)[C@H](CC(=O)O)NC(=O)[C@H](CCCNC(=N)N)NC(=O)[C@H](CC(C)C)NC(=O)[C@@H]1CCCN1C(=O)[C@H](C)NC(=O)[C@H](CC(=O)O)NC(=O)[C@H](Cc1c[nH]c2ccccc12)NC(=O)[C@H](CCCNC(=N)N)NC(=O)[C@@H]1CCCN1C(=O)[C@H](C)N)C(=O)N[C@@H](CC(C)(C)C)C(=O)O` [Arb-SAR-P17]: the half-life in data set [1] (setting [2]) is 12.1 min.
As to `CC(C)C[C@H](NC(=O)[C@H](C)NC(=O)[C@@H]1CCCN1C(=O)[C@H](CC(=O)O)NC(=O)[C@H](CCCNC(=N)N)NC(=O)[C@H](CC(C)C)NC(=O)[C@@H]1CCCN1C(=O)[C@H](C)NC(=O)[C@H](CC(=O)O)NC(=O)[C@H](Cc1c[nH]c2ccccc12)NC(=O)[C@H](CCCNC(=N)N)NC(=O)[C@@H]1CCCN1C(=O)[C@H](C)N)C(=O)N[C@@H](CCCNC(=N)N)C(=O)N[C@@H](CCC(N)=O)C(=O)N[C@@H](CC(C)(C)C)C(=O)N[C@@H](CC(C)(C)C)C(=O)O` [Arb-SAR-P22], the half-life in data set [1] (setting [3]) was 9.95 min.
As to `CC(C)C[C@H](NC(=O)[C@H](C)NC(=O)[C@@H]1CCCN1C(=O)[C@H](CC(=O)O)NC(=O)[C@H](CCCNC(=N)N)NC(=O)[C@H](CC(C)C)NC(=O)[C@@H]1CCCN1C(=O)[C@H](C)NC(=O)[C@H](CC(=O)O)NC(=O)[C@H](Cc1c[nH]c2ccccc12)NC(=O)[C@H](CCCNC(=N)N)NC(=O)[C@@H]1CCCN1C(=O)[C@H](C)N)C(=O)N[C@@H](CCCNC(=N)N)C(=O)N[C@@H](CCC(N)=O)C(=O)N[C@@H](CC1CCC1)C(=O)N[C@@H](CC(C)(C)C)C(=O)O` [Arb-SAR-P24], in data set [1] (setting [2]), the half-life came to 10.1 min.
With `CC(C)CC[C@H](NC(=O)[C@H](CCC(N)=O)NC(=O)[C@H](CCCNC(=N)N)NC(=O)[C@H](CC(C)C)NC(=O)[C@H](C)NC(=O)[C@@H]1CCCN1C(=O)[C@H](CC(=O)O)NC(=O)[C@H](CCCNC(=N)N)NC(=O)[C@H](CC(C)C)NC(=O)[C@@H]1CCCN1C(=O)[C@H](C)NC(=O)[C@H](CC(=O)O)NC(=O)[C@H](Cc1c[nH]c2ccccc12)NC(=O)[C@H](CCCNC(=N)N)NC(=O)[C@@H]1CCCN1C(=O)[C@H](C)N)C(=O)N[C@@H](CC1CCC1)C(=O)O` [Arb-SAR-Q09], in data set [1] (setting [3]), the half-life came out at 11.5 min.
`CC(C)C[C@H](NC(=O)[C@H](C)NC(=O)[C@@H]1CCCN1C(=O)[C@H](CC(=O)O)NC(=O)[C@H](CCCNC(=N)N)NC(=O)[C@H](CC(C)C)NC(=O)[C@@H]1CCCN1C(=O)[C@H](C)NC(=O)[C@H](CC(=O)O)NC(=O)[C@H](Cc1c[nH]c2ccccc12)NC(=O)[C@H](CCCNC(=N)N)NC(=O)[C@@H]1CCCN1C(=O)[C@H](C)N)C(=O)N[C@@H](CCCNC(=N)N)C(=O)N[C@@H](CCC(N)=O)C(=O)N[C@H](C(=O)N[C@@H](CC1CCC1)C(=O)O)C(C)(C)C` [Arb-SAR-Q15]: the half-life in data set [1] (setting [2]) is 16.9 min.
`CCCC[C@@H]1NC(=O)[C@@H](NC(=O)[C@H](CCC(N)=O)NC(=O)[C@H](C)NC(C)=O)CSSC[C@@H](C(=O)N[C@@H](CCCNC(=N)N)C(=O)N[C@@H](CCC(N)=O)C(=O)N[C@H](C(=O)N[C@@H](CC(C)(C)C)C(=O)O)C(C)(C)C)NC(=O)[C@H](C)NC(=O)[C@H](CCCNC(=N)N)NC(=O)[C@H](CC(N)=O)NC(=O)[C@H](CCCNC(=N)N)NC(=O)CNC1=O` [Arb_cyclic_C5]: the half-life in data set [1] (setting [4]) turned out to be 46.1 min.
Turning to `CC(=O)N[C@@H](Cc1c[nH]cn1)C(=O)N[C@@H](CC(N)=O)C(=O)N[C@@H](Cc1ccccc1)C(=O)N[C@@H](Cc1ccc(O)cc1)C(=O)N[C@H]1CSSC[C@@H](C(=O)N[C@@H](CCC(N)=O)C(=O)N[C@@H](CCCNC(=N)N)C(=O)N[C@@H](CCC(N)=O)C(=O)N[C@H](C(=O)N[C@@H](CC(C)(C)C)C(=O)O)C(C)(C)C)NC(=O)[C@H](Cc2c[nH]cn2)NC(=O)[C@H](CCCCN)NC(=O)[C@H](CCCNC(=N)N)NC1=O` [Arb_cyclic_C22], the half-life in data set [1] (setting [5]) turned out to be 58.3 min.
With `CC(=O)N[C@@H](CCC(=O)O)C(=O)N[C@@H](Cc1c[nH]c2ccccc12)C(=O)N[C@H]1CSSC[C@@H](C(=O)N[C@@H](CCCNC(=N)N)C(=O)N[C@@H](CCC(N)=O)C(=O)N[C@H](C(=O)N[C@@H](CC(C)(C)C)C(=O)O)C(C)(C)C)NC(=O)[C@H]([C@@H](C)O)NC(=O)[C@@H]2CCCN2C(=O)[C@H](Cc2c[nH]cn2)NC(=O)[C@H](CC(N)=O)NC(=O)[C@H](Cc2c[nH]cn2)NC(=O)[C@H](CC(C)C)NC(=O)CNC1=O` [Arb_cyclic_F3], the half-life in data set [1] (setting [4]) came out at 173 min.
As to `CC(=O)N[C@@H](CCCNC(=N)N)C(=O)N[C@@H](CC(=O)O)C(=O)N[C@H]1CSSC[C@@H](C(=O)N[C@@H](CCCNC(=N)N)C(=O)N[C@@H](CCC(N)=O)C(=O)N[C@H](C(=O)N[C@@H](CC(C)(C)C)C(=O)O)C(C)(C)C)NC(=O)[C@@H]2CCCN2C(=O)[C@@H]2CCCN2C(=O)[C@H](C)NC(=O)[C@H](CCCNC(=N)N)NC(=O)[C@H](CC(C)C)NC(=O)[C@H](CO)NC(=O)[C@H](C)NC1=O` [Arb_cyclic_G2], the half-life in data set [1] (setting [4]) is 30.8 min.
As for `CCCC[C@H](NC(=O)[C@H](CCCNC(=N)N)NC(C)=O)C(=O)N[C@H]1CSSC[C@@H](C(=O)N[C@@H](CCCNC(=N)N)C(=O)N[C@@H](CCC(N)=O)C(=O)N[C@H](C(=O)N[C@@H](CC(C)(C)C)C(=O)O)C(C)(C)C)NC(=O)[C@H](C)NC(=O)[C@@H]2CCCN2C(=O)[C@H](CO)NC(=O)[C@H](CCCNC(=N)N)NC(=O)[C@H]([C@@H](C)CC)NC(=O)[C@@H]2CCCN2C(=O)CNC1=O` [Arb_cyclic_G10], the half-life in data set [1] (setting [5]) is 11.2 min.
Still for that read-out and setting: under `CCCC[C@@H]1NC(=O)[C@H](CCCNC(=N)N)NC(=O)[C@H](CCCNC(=N)N)NC(=O)[C@H]([C@@H](C)O)NC(=O)[C@H]([C@@H](C)O)NC(=O)[C@@H](NC(=O)[C@H](CO)NC(=O)[C@H](CCCNC(=N)N)NC(C)=O)CSSC[C@@H](C(=O)N[C@@H](CCCNC(=N)N)C(=O)N[C@@H](CCC(N)=O)C(=O)N[C@H](C(=O)N[C@@H](CC(C)(C)C)C(=O)O)C(C)(C)C)NC(=O)[C@H]([C@@H](C)O)NC(=O)[C@H](C)NC1=O` [Arb_cyclic_G14, RSCTTRR(Nle)ATCRQ(B13)(F02)] (HELM PEPTIDE1{[ac].R.S.C.T.T.R.R.[Nle].A.T.C.R.Q.[CC(C)(C)[C@H](N[*:1])C(=O)[*:2]].[CC(C)(C)C[C@H](N[*:1])C(=O)O]}$PEPTIDE1,PEPTIDE1,4:R3-12:R3$$$V2.0) stands 50.3 min.
Regarding `CCCC[C@@H]1NC(=O)[C@H](CCCNC(=N)N)NC(=O)[C@H](CCCNC(=N)N)NC(=O)[C@H](CC(N)=O)NC(=O)[C@H](CCC(=O)O)NC(=O)[C@@H](NC(=O)[C@H](Cc2c[nH]c3ccccc23)NC(=O)[C@H](CCCNC(=N)N)NC(C)=O)CSSC[C@@H](C(=O)N[C@@H](CCCNC(=N)N)C(=O)N[C@@H](CCC(N)=O)C(=O)N[C@H](C(=O)N[C@@H](CC(C)(C)C)C(=O)O)C(C)(C)C)NC(=O)[C@H]([C@@H](C)O)NC(=O)[C@H](Cc2ccccc2)NC1=O` [Arb_cyclic_G23, RWCENRR(Nle)FTCRQ(B13)(F02)], the half-life in data set [1] (setting [4]) came out at 39.1 min.
`CC[C@H](C)[C@@H]([C@@H](CC(=O)N1CCC[C@H]1[C@H](OC)[C@@H](C)C(=O)N[C@H](C)[C@@H](O)c1ccccc1)OC)N(C)C(=O)[C@@H](NC(=O)[C@@H](NC)C(C)C)C(C)C` [Free MMAE, Monomethyl auristatin E, reference compound] (H-[NMeV]V[Dil][Dolaproine]-X1; N-terminus and C-terminus assumed): the “body weight variation (Example 6)” value with MDA-MB-231 xenograft (PDC at each dose, free MMAE at equivalency to 3 mg/kg PDC) was “body weight fluctuations corresponding to treatment times”. The “body weight loss (Example 8)” value in the data set on MDA-MB-231 xenograft (PDCs 3 mg/kg, free MMAE at molar equivalency (0.6 mg/kg)) is “body weight fluctuations corresponding to treatment times”.

The values above are taken from US20260183411A1, “TARGETING SORTILIN” (priority 2024, published 2026).
